In one assay the target is CDC7 (Homo sapiens, UniProt O00311). Kind of assay: CDC7 inhibition, biochemical chemiluminescence assay (Kinase Glo, IC50 determination). An outline of the steps:
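CDC7 enzyme preincubated with compound 10 min at ambient temperature, then ATP mix in Tris Base added; reaction 90 min at 24-27 °C. Remaining ATP quantified by Kinase Glo luminescence to give IC50.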
(Kinase-Glo measures the ATP left after a reaction by luminescence.)

Assay [1] addresses PIM (PIM-1, PIM-2, and/or PIM-3). The assay is described as follows: PIM-1, PIM-2 and PIM-3 inhibition, biochemical chemiluminescence assays (Kinase Glo, IC50 determination). Particulars: Table 1 activity class; PIM refers to PIM-1, PIM-2, and/or PIM-3; read-out: PIM IC50 (Activity B).
The target of the next assay is CK2 (Homo sapiens, UniProt P68400). The assay is described as follows: CK2 inhibition, biochemical chemiluminescence holoenzyme assay (Kinase Glo, IC50 determination). The note with it: Table 1 activity class; symbol given only if active; read-out: CK2 IC50 (Activity C). An outline of the steps:
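Holoenzyme CK2 assay; compounds pre-incubated with substrate and enzyme, then reacted 150 min at 24-27° C. Remaining ATP measured as luminescence with Kinase Glo, and IC50 derived from the signal.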

Where [2] appears, read: Table 1 activity class, symbol given only if active, read-out: CDC7 IC50 (Activity A).
The mark [3] stands for this setting: compounds in Table 1, read-out: CDC7 IC50 value.

The structures appear in SMILES notation. Read-outs that look alike come from different tables or passages of the source. A value given as a limit tells only on which side of the number the result lay.

Sequence of CK2 (P68400 whole entry): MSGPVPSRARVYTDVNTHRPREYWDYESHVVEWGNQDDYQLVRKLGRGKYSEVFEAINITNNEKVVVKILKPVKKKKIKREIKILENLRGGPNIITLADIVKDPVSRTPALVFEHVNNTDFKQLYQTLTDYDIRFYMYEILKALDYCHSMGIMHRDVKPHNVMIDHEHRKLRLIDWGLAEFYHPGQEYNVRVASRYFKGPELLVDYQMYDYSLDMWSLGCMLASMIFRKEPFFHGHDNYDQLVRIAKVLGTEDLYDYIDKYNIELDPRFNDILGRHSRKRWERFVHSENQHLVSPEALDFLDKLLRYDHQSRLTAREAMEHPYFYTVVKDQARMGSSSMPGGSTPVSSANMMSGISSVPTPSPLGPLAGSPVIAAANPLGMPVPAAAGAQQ
Sequence of CK2 (P67870 whole entry partner): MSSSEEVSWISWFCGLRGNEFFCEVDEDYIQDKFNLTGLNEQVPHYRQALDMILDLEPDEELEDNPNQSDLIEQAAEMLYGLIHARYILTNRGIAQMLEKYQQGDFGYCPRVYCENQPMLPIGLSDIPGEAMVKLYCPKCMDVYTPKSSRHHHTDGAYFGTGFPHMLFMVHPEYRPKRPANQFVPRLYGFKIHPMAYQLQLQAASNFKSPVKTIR
Sequence of CDC7 (O00311 whole entry): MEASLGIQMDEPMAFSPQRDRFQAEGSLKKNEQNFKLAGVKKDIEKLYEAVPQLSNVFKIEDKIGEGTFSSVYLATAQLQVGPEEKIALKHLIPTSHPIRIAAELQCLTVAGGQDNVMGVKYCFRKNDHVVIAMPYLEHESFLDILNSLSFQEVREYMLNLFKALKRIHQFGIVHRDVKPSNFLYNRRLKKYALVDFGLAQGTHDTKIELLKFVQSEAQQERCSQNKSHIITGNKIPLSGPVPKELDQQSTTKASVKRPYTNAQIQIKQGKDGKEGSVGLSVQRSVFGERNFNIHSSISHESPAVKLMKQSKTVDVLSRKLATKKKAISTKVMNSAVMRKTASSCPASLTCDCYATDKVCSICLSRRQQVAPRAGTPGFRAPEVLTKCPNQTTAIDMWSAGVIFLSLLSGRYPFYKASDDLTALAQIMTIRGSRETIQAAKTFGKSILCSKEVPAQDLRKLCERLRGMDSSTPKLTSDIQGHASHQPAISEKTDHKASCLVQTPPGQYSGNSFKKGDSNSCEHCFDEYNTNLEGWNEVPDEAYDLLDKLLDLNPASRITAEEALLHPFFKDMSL
Sequence of CDC7 (Q9UBU7 whole entry partner): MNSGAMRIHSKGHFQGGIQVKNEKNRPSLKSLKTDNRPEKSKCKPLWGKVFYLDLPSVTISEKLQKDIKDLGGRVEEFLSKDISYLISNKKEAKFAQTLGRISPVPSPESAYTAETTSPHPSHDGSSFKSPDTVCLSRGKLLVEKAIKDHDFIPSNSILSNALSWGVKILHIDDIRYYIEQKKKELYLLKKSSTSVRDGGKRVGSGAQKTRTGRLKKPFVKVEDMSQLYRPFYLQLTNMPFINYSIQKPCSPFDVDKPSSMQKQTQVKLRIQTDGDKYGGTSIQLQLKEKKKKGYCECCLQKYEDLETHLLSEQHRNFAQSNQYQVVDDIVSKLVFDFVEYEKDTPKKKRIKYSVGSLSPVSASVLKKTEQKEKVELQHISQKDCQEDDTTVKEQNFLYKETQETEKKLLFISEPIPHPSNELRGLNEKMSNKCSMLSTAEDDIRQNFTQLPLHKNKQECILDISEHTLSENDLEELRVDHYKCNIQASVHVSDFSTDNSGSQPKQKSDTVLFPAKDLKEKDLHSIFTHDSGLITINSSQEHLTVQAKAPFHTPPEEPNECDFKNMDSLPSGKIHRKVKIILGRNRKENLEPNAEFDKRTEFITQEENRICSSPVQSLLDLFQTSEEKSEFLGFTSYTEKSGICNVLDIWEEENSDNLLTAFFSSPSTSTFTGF

One may read the IC50 as the concentration needed to halve the response being measured. `CC(C)(CN1CCCCC1)NCc1nc2c(oc3ccc(Br)cc32)c(=O)[nH]1` [Compound 191, 8-bromo-2-{[(1,1-dimethyl-2-piperidin-1-ylethyl)amino]methyl}[1]benzofuro[3,2-d]pyrimidin-4(3H)-one]: the IC50 is under 10 µM at CDC7 (setting [2]), under 0.1 µM on CDC7 (setting [3]), under 10 µM in assay [1] and under 10 µM at CK2.

For the molecule `O=c1[nH]c([C@@H]2Cc3ccccc3N2)nc2c1oc1ccc(Br)cc12` [Compound 510, 8-bromo-2-[(2S)-2,3-dihydro-1H-indol-2-yl][1]benzofuro[3,2-d]pyrimidin-4(3H)-one], the IC50 (on CDC7 (setting [2]); in assay [1]; at CK2) was under 10 µM each time.

For `COc1ccc2oc3c(=O)[nH]c(C4CCCN4)nc3c2c1` (stereo in doubt) [Compound 494, 8-(methyloxy)-2-[(2S)-pyrrolidin-2-yl][1]benzofuro[3,2-d]pyrimidin-4(3H)-one], the IC50 (on CDC7 (setting [2]); in assay [1]; at CK2) was under 10 µM throughout.

`O=C(Nc1ccc(-c2nc3c(oc4ccc(Br)cc43)c(=O)[nH]2)c(Cl)c1)c1ccccn1` [Compound 293, N-[4-(8-bromo-4-oxo-3,4-dihydro[1]benzofuro[3,2-d]pyrimidin-2-yl)-3-chlorophenyl]pyridine-2-carboxamide]: the IC50 (at CDC7 (setting [2]); in assay [1]; on CK2) was under 10 µM in each case.

As for `O=c1[nH]c(CC2CCCNC2)nc2c1oc1ccc(Br)cc12` (centres unmarked) [Compound 194, 8-bromo-2-(piperidin-3-ylmethyl)[1]benzofuro[3,2-d]pyrimidin-4(3H)-one], the IC50 (on CDC7 (setting [2]); in assay [1]; on CK2) was under 10 µM in each case.

Turning to `O=c1[nH]c(CN2CC=CC2)nc2c1oc1ccc(Br)cc12` [Compound 331, 8-bromo-2-(3-pyrrolin-1-ylmethyl)[1]benzofuro[3,2-d]pyrimidin-4(3H)-one], the half-inhibitory concentration (IC50) at CDC7 (setting [2]) is under 10 µM; on CDC7 (setting [3]), under 0.1 µM; in assay [1], under 10 µM; on CK2 it was under 10 µM.

Consider `O=c1[nH]c(CN2CCC[C@H](O)C2)nc2c1oc1ccc(Br)cc12` [Compound 404, 8-bromo-2-{[(3S)-3-hydroxypiperidin-1-yl]methyl}[1]benzofuro[3,2-d]pyrimidin-4(3H)-one], for which the half-maximal inhibitory concentration (IC50) at CDC7 (setting [2]) is under 10 µM; at CDC7 (setting [3]), under 0.1 µM; in assay [1], under 10 µM; on CK2 it was under 10 µM.

Regarding `CC[C@@H](C)NCc1nc2c(oc3ccc(Br)cc32)c(=O)[nH]1` [Compound 519, 8-bromo-2-({[(1R)-1-methylpropyl]amino}methyl)[1]benzofuro[3,2-d]pyrimidin-4(3H)-one], the IC50 on CDC7 (setting [2]) was under 10 µM; at CDC7 (setting [3]), under 0.1 µM; in assay [1] it was under 10 µM; at CK2, under 10 µM.

For the molecule `O=C(Nc1ccc(-c2nc3c(oc4ccc(Br)cc43)c(=O)[nH]2)c(Cl)c1)c1cnc2[nH]ccc2c1` [Compound 395, ′N-[4-(8-bromo-4-oxo-3,4-dihydro[1]benzofuro[3,2-d]pyrimidin-2-yl)-3-chlorophenyl]-1H-pyrrolo[2,3-b]pyridine-5-carboxamide], the IC50 (at CDC7 (setting [2]); in assay [1]; on CK2) was under 10 µM in each case.

In the case of `CC(C)(NCc1nc2c(oc3ccc(Br)cc32)c(=O)[nH]1)C(=O)O` [Compound 189, N-[(8-bromo-4-oxo-3,4-dihydro[1]benzofuro[3,2-d]pyrimidin-2-yl)methyl]-2-methylalanine], the 50% inhibitory concentration (IC50) (at CDC7 (setting [2]); in assay [1]; at CK2) was under 10 µM in each case.

For the molecule `O=c1[nH]c(CNCC(O)CO)nc2c1oc1ccc(Br)cc12` (centres unmarked) [Compound 262, 8-bromo-2-{[(2,3-dihydroxypropyl)amino]methyl}[1]benzofuro[3,2-d]pyrimidin-4(3H)-one], the half-maximal inhibitory concentration (IC50) at CDC7 (setting [2]) was under 10 µM; on CDC7 (setting [3]), under 0.1 µM; in assay [1], under 10 µM; on CK2, under 10 µM.

For `C[C@@H](N)c1nc2c(oc3ccc(Br)cc32)c(=O)[nH]1` [Compound 493, 2-[(1R)-1-aminoethyl]-8-bromo[1]benzofuro[3,2-d]pyrimidin-4(3H)-one], the half-maximal inhibitory concentration (IC50) was under 10 µM on CDC7 (setting [2]), under 0.1 µM on CDC7 (setting [3]), under 10 µM in assay [1] and under 10 µM at CK2.

In the case of `O=C(Nc1ccc(-c2nc3c(oc4ccc(Br)cc43)c(=O)[nH]2)c(Cl)c1)C1CCOC1` (centres unmarked) [Compound 313, N-[4-(8-bromo-4-oxo-3,4-dihydro[1]benzofuro[3,2-d]pyrimidin-2-yl)-3-chlorophenyl]tetrahydrofuran-3-carboxamide], the IC50 (on CDC7 (setting [2]); in assay [1]; on CK2) was under 10 µM throughout.

Take `O=c1[nH]c(-c2ccc(CNCCN3CCCCC3)cc2Cl)nc2c1oc1ccc(Br)cc12` [Compound 385, 8-bromo-2-(2-chloro-4-{[(2-piperidin-1-ylethyl)amino]methyl}phenyl)[1]benzofuro[3,2-d]pyrimidin-4(3H)-one]: the IC50 (at CDC7 (setting [2]); in assay [1]; on CK2) was under 10 µM in each case.

As to `CC(C)COc1cccc2oc3c(=O)[nH]c(CN4CC[C@H](O)C4)nc3c12` [Compound 469, 2-{[(3S)-3-hydroxypyrrolidin-1-yl]methyl}-9-[(2-methylpropyl)oxy][1]benzofuro[3,2-d]pyrimidin-4(3H)-one], the IC50 (at CDC7 (setting [2]); in assay [1]; on CK2) was under 10 µM throughout.

Regarding `O=c1[nH]c(-c2cc([N+](=O)[O-])ccc2Cl)nc2c1oc1ccc(Br)cc12` [Compound 126, 8-bromo-2-(2-chloro-5-nitrophenyl)[1]benzofuro[3,2-d]pyrimidin-4(3H)-one], the IC50 (on CDC7 (setting [2]); in assay [1]; on CK2) was under 10 µM throughout.

With `O=c1[nH]c([C@@H]2CC3CCCCC3N2)nc2c1oc1ccc(Br)cc12` (stereo partly drawn) [Compound 501, 8-bromo-2-[(2S)-octahydro-1H-indol-2-yl][1]benzofuro[3,2-d]pyrimidin-4(3H)-one], the half-inhibitory concentration (IC50) at CDC7 (CDC7 IC50 (Activity A), Table 1 activity class, symbol given only if active) was under 10 µM; on CDC7 (CDC7 IC50 value, compounds in Table 1), under 0.1 µM; in assay [1], under 10 µM; at CK2 it was under 10 µM.

On to `CN1CCCN(Cc2nc3c(oc4ccc(Br)cc43)c(=O)[nH]2)CC1` [Compound 426, 8-bromo-2-[(4-methyl-1,4-diazepan-1-yl)methyl][1]benzofuro[3,2-d]pyrimidin-4(3H)-one], for which the 50% inhibitory concentration (IC50) at CDC7 (setting [2]) is under 10 µM; at CDC7 (setting [3]) it was under 0.1 µM; in assay [1], under 10 µM; on CK2 it was under 10 µM.

In the case of `NC(c1ccccc1)c1nc2c(oc3ccc(Br)cc32)c(=O)[nH]1` (centres unmarked) [Compound 174, 2-[amino(phenyl)methyl]-8-bromo[1]benzofuro[3,2-d]pyrimidin-4(3H)-one], the half-inhibitory concentration (IC50) was under 10 µM at CDC7 (setting [2]), under 0.1 µM on CDC7 (setting [3]), under 10 µM in assay [1] and under 10 µM at CK2.

In the case of `CN1CC(c2nc3c(oc4ccc(Br)cc43)c(=O)[nH]2)C1` [Compound 221, 8-Bromo-2-(1-methylazetidin-3-yl)[1]benzofuro[3,2-d]pyrimidin-4(3H)-one], the IC50 on CDC7 (setting [2]) was under 10 µM; on CDC7 (setting [3]), under 0.1 µM; in assay [1] it was under 10 µM; on CK2, under 10 µM.

Turning to `O=c1[nH]c(CNCCc2ccncc2)nc2c1oc1ccc(Br)cc12` [Compound 166, 8-bromo-2-{[(2-pyridin-4-ylethyl)amino]methyl}[1]benzofuro[3,2-d]pyrimidin-4(3H)-one], the IC50 on CDC7 (setting [2]) is under 10 µM; on CDC7 (setting [3]) it was under 0.1 µM; in assay [1], under 10 µM; on CK2, under 10 µM.

For the molecule `O=C(O)C1CCN(Cc2nc3c(oc4ccc(Br)cc43)c(=O)[nH]2)C1` (centres unmarked) [Compound 103, 1-[(8-bromo-4-oxo-3,4-dihydro[1]benzofuro[3,2-d]pyrimidin-2-yl)methyl]pyrrolidine-3-carboxylic acid], the IC50 on CDC7 (setting [2]) is under 10 µM; at CDC7 (setting [3]), under 0.1 µM; in assay [1] it was under 10 µM; on CK2, under 10 µM.

As for `CCC(C)N(C)Cc1nc2c(oc3ccc(Br)cc32)c(=O)[nH]1` (centres unmarked) [Compound 518, 8-bromo-2-{[methyl(1-methylpropyl)amino]methyl}[1]benzofuro[3,2-d]pyrimidin-4(3H)-one], the IC50 at CDC7 (setting [2]) was under 10 µM; on CDC7 (setting [3]), under 0.1 µM; in assay [1], under 10 µM; on CK2, under 10 µM.

Take `CC(C)NCc1nc2c(oc3ccc(Br)cc32)c(=O)[nH]1` [Compound 496, 8-bromo-2-{[(1-methylethyl)amino]methyl}[1]benzofuro[3,2-d]pyrimidin-4(3H)-one]: the IC50 was under 10 µM on CDC7 (setting [2]), under 0.1 µM on CDC7 (setting [3]), under 10 µM in assay [1] and under 10 µM at CK2.

For the molecule `O=C(Nc1ccc(-c2nc3c(oc4ccc(Br)cc43)c(=O)[nH]2)c(Cl)c1)c1cncnc1` [Compound 328, N-[4-(8-bromo-4-oxo-3,4-dihydro[1]benzofuro[3,2-d]pyrimidin-2-yl)-3-chlorophenyl]pyrimidine-5-carboxamide], the concentration for half-maximal inhibition (IC50) (on CDC7 (setting [2]); in assay [1]; on CK2) was under 10 µM in each case.

For the molecule `CN1CCN(c2nc3c(oc4ccc(Br)cc43)c(=O)[nH]2)CC1` [Compound 115, 8-bromo-2-(4-methylpiperazin-1-yl)[1]benzofuro[3,2-d]pyrimidin-4(3H)-one], the half-inhibitory concentration (IC50) (on CDC7 (setting [2]); in assay [1]; on CK2) was under 10 µM throughout.

The record behind these values is patent US20090247559A1 (Exelixis, Inc., priority 2007, published 2009).
